Data: PubChem BioAssay AID2060622 (Molecular Pharmacology Branch, DTP, NCI, 2025)

Test system: 242566-281-R-J2-PDC complex spheroid viability
Experiment: Anticancer human tumor 242566-281-R-J2-PDC patient-derived pancreatic carcinoma cell line growth inhibition [CLK]
Conditions: for IC50: curve of first compound; for viability, T/C: stronger effect = lower value
From the text: A high-throughput screen of multi-cell type tumor spheroids was designed to identify active combinations of […] and targeted small molecules. Complex spheroids include a stromal component modeled by human endothelial cells (HUVEC) and fibroblasts modeled by human mesenchymal stem cells (MSCs). The concentration ranges selected for each drug and investigational agent were based upon clinically achievable concentrations if the clinical Cmax of the agent was known.
Compounds. The drugs and investigational agents: cirtuvivint (SM08502; NSC835563), CC-671 (NSC850746), vemurafenib (NSC761431), tapotoclax (NSC804041), sotorasib (NSC818433), adagrasib (NSC831453), MRTX-1133 (NSC836407), BAY2416964 (NSC825713), copanlisib (NSC816437), inavolisib (NSC800729), abemaciclib (NSC768073), osimertinib (NSC779217), entinostat (NSC756642), eltanexor (KPT-8602, NSC794443), venetoclax (NSC766270), ceralasertib (NSC777638), bortezomib (NSC756655), olaparib (NSC753686), talazoparib (NSC767125), alisertib (NSC759677), peposertib (NSC802822), gemcitabine (NSC613327), 5-fluorouracil (NSC19893), SN-38 (NSC673596), oxaliplatin (NSC266046), paclitaxel (NSC125973), and doxorubicin (NSC123127), were obtained from the National Cancer Institute (NCI) Developmental Therapeutics Program Chemical Repository. The FDA-approved anticancer drug set is available from the Developmental Therapeutics Program at https://dtp.cancer.gov/organization/dscb/obtaining/available plates.htm. […] The stock solutions were prepared in dimethyl sulfoxide (DMSO, Sigma-Aldrich, St. Louis, MO, cat. D2650), except for the platinum complexes which were prepared in saline (Quality Biological, Gaithersburg, MD, cat. 114-055-101), at 800-fold the tested concentration and stored at -70 degrees C prior to their use. All drugs and investigational agents were tested over a range starting from a high concentration at or near the clinical Cmax and decreasing in half-log increments. If the clinical Cmax for an agent had not been determined, the highest concentration tested was 10 microM.
Cell Culture. All cells were maintained in an incubator at 37 degrees C and 5% CO2 with 95% humidity. The PDC lines were cultured according to standard operating procedures established by the NCI PDMR. Briefly, all PDCs were thawed and cultured in Matrigel-coated flasks prepared with a working solution of 1X Ham's F-12 nutrient mix, without supplementation (Invitrogen, Waltham, MA, cat. 11765054), 100 U/mL penicillin-streptomycin (Invitrogen, cat. 15140122), and 2.5% Matrigel (Corning Inc., Corning, NY, cat. 354248) for the first three passages. The 947758-054-R-J2-PDC line was cultured in 6B/Colon 1A media, which includes advanced DMEM/F-12 (Thermo Fisher Scientific, cat. 12634028), 10 mM HEPES (Thermo Fisher Scientific, cat. 15630080), 1X GlutaMAX supplement (Thermo Fisher Scientific, cat. 35050061), 0.1 mg/mL primocin (InvivoGen, cat. ant-pm-2), 10% defined fetal bovine serum, heat inactivated (HyClone Laboratories Inc., cat. SH30070.03HI), 1.25 mM N-Acetyl-L-cysteine (Sigma-Aldrich, cat. A9165), 10 mM nicotinamide (Sigma-Aldrich, cat. N0636), 1X B-27 supplement (Thermo Fisher Scientific, cat. 17504044), 1X N-2 supplement (Thermo Fisher Scientific, cat. 17502048), and 10 microM Y-27632 dihydrochloride (Tocris Bioscience, cat. 1254). The 876862-298-R-J1-PDC was cultured in 6E media, which includes all 6B/Colon 1A media components plus 50% L-WRN conditioned media (ATCC, cat. CRL-3276), 50 ng/mL recombinant human EGF recombinant protein (hEGF; Thermo Fisher Scientific, cat. PHG0311), 10 ng/mL recombinant human fibroblast growth factor 10 (hGFG-10; PeproTech, cat. 100-26), 1 ng/mL recombinant human fibroblast growth factor 2 (hFGF-2; PeproTech, cat. 100-18B), and 1 µM prostaglandin E2 (PGE2; Tocris, cat. 2296). The 227483-062-R1-J1-PDC line was cultured in Panc media, containing all 6E components except hFGF-2, with the addition of 500 nM SB-431542 (Selleckchem, cat. S1067) and 10 nM gastrin (Tocris, cat. 3006). […]

[1] = second compound 0.0316 µM, first compound 0.0316 µM
[2] = second compound 0.0316 µM, first compound 0.1 µM
[3] = second compound 0.0316 µM, first compound 0.316 µM
[4] = second compound 0.0316 µM, first compound 1 µM
[5] = second compound 0.0316 µM, first compound 3.16 µM
[6] = second compound 0.0316 µM, first compound 10 µM
[7] = second compound 0.1 µM, first compound 0.0316 µM
[8] = second compound 0.1 µM, first compound 0.1 µM
[9] = second compound 0.1 µM, first compound 0.316 µM
[10] = second compound 0.1 µM, first compound 1 µM
[11] = second compound 0.1 µM, first compound 3.16 µM
[12] = second compound 0.1 µM, first compound 10 µM
[13] = second compound 0.316 µM, first compound 0.0316 µM
[14] = second compound 0.316 µM, first compound 0.1 µM
[15] = second compound 0.316 µM, first compound 0.316 µM
[16] = second compound 0.316 µM, first compound 1 µM
[17] = second compound 0.316 µM, first compound 3.16 µM
[18] = second compound 0.316 µM, first compound 10 µM
[19] = second compound 1 µM, first compound 0.0316 µM
[20] = second compound 1 µM, first compound 0.1 µM
[21] = second compound 1 µM, first compound 0.316 µM
[22] = second compound 1 µM, first compound 1 µM
[23] = second compound 1 µM, first compound 3.16 µM
[24] = second compound 1 µM, first compound 10 µM
[25] = second compound 3.16 µM, first compound 0.0316 µM
[26] = second compound 3.16 µM, first compound 0.1 µM
[27] = second compound 3.16 µM, first compound 0.316 µM
[28] = second compound 3.16 µM, first compound 1 µM
[29] = second compound 3.16 µM, first compound 3.16 µM
[30] = second compound 3.16 µM, first compound 10 µM
[31] = second compound 10 µM, first compound 0.0316 µM
[32] = second compound 10 µM, first compound 0.1 µM
[33] = second compound 10 µM, first compound 0.316 µM
[34] = second compound 10 µM, first compound 1 µM
[35] = second compound 10 µM, first compound 3.16 µM
[36] = second compound 10 µM, first compound 10 µM
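Also: spheroids exposed to compounds for 7 days before readout.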
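For viability, T/C in this document: 100% = DMSO vehicle control wells.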

C#Cc1c(F)ccc2cc(O)cc(-c3ncc4c(N5CC6CCC(C5)N6)nc(OCC56CCCN5CC(F)C6)nc4c3F)c12 (stereo unspecified) + CN1CCN(c2cc(C(=O)Nc3cc4cc(-c5cnn(C)c5)ccc4cn3)ccn2)CC1
IC50 (second compound 0.0316 µM): 84.6 nM
IC50 (second compound 0.1 µM): 65.3 nM
IC50 (second compound 0.316 µM): < 31.6 nM
IC50 (second compound 1 µM): < 31.6 nM
IC50 (second compound 3.16 µM): < 31.6 nM
IC50 (second compound 10 µM): < 31.6 nM
viability, T/C [1]: 63.9%
viability, T/C [2]: 47.5%
viability, T/C [3]: 34%
viability, T/C [4]: 29.4%
viability, T/C [5]: 23.9%
viability, T/C [6]: 17.1%
viability, T/C [7]: 61.3%
viability, T/C [8]: 42.9%
viability, T/C [9]: 31.1%
viability, T/C [10]: 19.9%
viability, T/C [11]: 18.5%
viability, T/C [12]: 15.5%
viability, T/C [13]: 18.4%
viability, T/C [14]: 13.2%
viability, T/C [15]: 12.2%
viability, T/C [16]: 10.6%
viability, T/C [17]: 7.18%
viability, T/C [18]: 3.44%
viability, T/C [19]: 1.87%
viability, T/C [20]: 1.39%
viability, T/C [21]: 1.09%
viability, T/C [22]: 1.22%
viability, T/C [23]: 1.43%
viability, T/C [24]: 1.26%
viability, T/C [25]: 2.9%
viability, T/C [26]: 2.24%
viability, T/C [27]: 2.74%
viability, T/C [28]: 2.35%
viability, T/C [29]: 2.06%
viability, T/C [30]: 1.51%
viability, T/C [31]: 1.01%
viability, T/C [32]: 0.76%
viability, T/C [33]: 0.69%
viability, T/C [34]: 0.78%
viability, T/C [35]: 0.71%
viability, T/C [36]: 0.34%

CC(CO)NC(=O)c1cc(-c2ccc(Cl)cc2)nn(-c2cnn(C)c2)c1=O (stereo unspecified) + CN1CCN(c2cc(C(=O)Nc3cc4cc(-c5cnn(C)c5)ccc4cn3)ccn2)CC1
IC50 (second compound 0.0316 µM): > 10000 nM
IC50 (second compound 0.1 µM): > 10000 nM
IC50 (second compound 0.316 µM): < 31.6 nM
IC50 (second compound 1 µM): < 31.6 nM
IC50 (second compound 3.16 µM): < 31.6 nM
IC50 (second compound 10 µM): < 31.6 nM
viability, T/C [1]: 95.6%
viability, T/C [2]: 117%
viability, T/C [3]: 129%
viability, T/C [4]: 106%
viability, T/C [5]: 101%
viability, T/C [6]: 93.6%
viability, T/C [7]: 93.5%
viability, T/C [8]: 104%
viability, T/C [9]: 87.3%
viability, T/C [10]: 94%
viability, T/C [11]: 101%
viability, T/C [12]: 72.3%
viability, T/C [13]: 38.2%
viability, T/C [14]: 43%
viability, T/C [15]: 39.9%
viability, T/C [16]: 36.5%
viability, T/C [17]: 41.5%
viability, T/C [18]: 37.6%
viability, T/C [19]: 4.91%
viability, T/C [20]: 5.11%
viability, T/C [21]: 5.14%
viability, T/C [22]: 5.04%
viability, T/C [23]: 4.52%
viability, T/C [24]: 4.45%
viability, T/C [25]: 6.35%
viability, T/C [26]: 7.68%
viability, T/C [27]: 8.66%
viability, T/C [28]: 7.21%
viability, T/C [29]: 7.5%
viability, T/C [30]: 6.89%
viability, T/C [31]: 2.09%
viability, T/C [32]: 2.51%
viability, T/C [33]: 2.07%
viability, T/C [34]: 2.91%
viability, T/C [35]: 2.05%
viability, T/C [36]: 0.93%

COc1c(OCCCN2CCOCC2)ccc2c3n(c(=NC(=O)c4cnc(N)nc4)nc12)CCN3 + CN1CCN(c2cc(C(=O)Nc3cc4cc(-c5cnn(C)c5)ccc4cn3)ccn2)CC1
IC50 (second compound 0.0316 µM): 25.5 nM
IC50 (second compound 0.1 µM): 19.4 nM
IC50 (second compound 0.316 µM): < 3.16 nM
IC50 (second compound 1 µM): < 3.16 nM
IC50 (second compound 3.16 µM): < 3.16 nM
IC50 (second compound 10 µM): < 3.16 nM
viability, T/C (second compound 0.0316 µM, first compound 0.00316 µM): 91%
viability, T/C (second compound 0.0316 µM, first compound 0.01 µM): 74.5%
viability, T/C [1]: 43.5%
viability, T/C [2]: 22.1%
viability, T/C [3]: 12.3%
viability, T/C [4]: 7.95%
viability, T/C (second compound 0.1 µM, first compound 0.00316 µM): 85.6%
viability, T/C (second compound 0.1 µM, first compound 0.01 µM): 69.5%
viability, T/C [7]: 34.6%
viability, T/C [8]: 18.1%
viability, T/C [9]: 9.35%
viability, T/C [10]: 6.4%
viability, T/C (second compound 0.316 µM, first compound 0.00316 µM): 34%
viability, T/C (second compound 0.316 µM, first compound 0.01 µM): 28.9%
viability, T/C [13]: 17.4%
viability, T/C [14]: 6.56%
viability, T/C [15]: 4.83%
viability, T/C [16]: 5.47%
viability, T/C (second compound 1 µM, first compound 0.00316 µM): 3.43%
viability, T/C (second compound 1 µM, first compound 0.01 µM): 3.63%
viability, T/C [19]: 3.24%
viability, T/C [20]: 2%
viability, T/C [21]: 1.83%
viability, T/C [22]: 1.24%
viability, T/C (second compound 3.16 µM, first compound 0.00316 µM): 6.71%
viability, T/C (second compound 3.16 µM, first compound 0.01 µM): 6.19%
viability, T/C [25]: 5.45%
viability, T/C [26]: 3.96%
viability, T/C [27]: 3.56%
viability, T/C [28]: 2.53%
viability, T/C (second compound 10 µM, first compound 0.00316 µM): 2.33%
viability, T/C (second compound 10 µM, first compound 0.01 µM): 2.32%
viability, T/C [31]: 1.35%
viability, T/C [32]: 1.56%
viability, T/C [33]: 1.19%
viability, T/C [34]: 1.26%
